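How tested: cells in 96-well plates exposed to compound for 48 hours at five concentrations. GI50 = concentration required for 50% inhibition of growth. TGI: total growth inhibition.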

For the first experiment, the system named is A549 NSCLC. The experiment is described as follows: DTP human tumour cell line panel, 48 h.
`O=C1/C(=C/c2ccc(Br)cc2)C=C(c2ccccc2)N1CCc1ccccc1`: the GI50 (usually the concentration giving 50% growth inhibition) was 1.37 µM and the TGI (as a rule, the concentration giving total growth inhibition) is 11.9 µM.
As for `COc1cc2c3c(n(C)c(=O)c2cc1OC)-c1cc2c(cc1/C3=C\CCCN1C(=O)c3ccccc3C1=O)OCO2`, the GI50 was 22 µM and the TGI was > 40 µM.
Take `CSc1ccc(C2=NN(C(C)=O)C(c3cc(C)cs3)C2)cc1` (configuration not stated): the GI50 was 27.2 µM and the TGI was > 100 µM.
As for `CCCCC(=O)OCC1OC(n2cnc3c(=S)nc[nH]c32)C(OC(=O)CCCC)C1OC(=O)CCCC` (configuration not stated), the GI50 was > 25.3 µM and the TGI was > 100 µM.
The like results for `O=c1oc2ccc(F)cc2c(=O)n1-c1ccc(F)cc1F` were, in that order, 3.35 µM and > 100 µM.
Regarding `Cn1cc(-c2cnc3ccc(NC(=O)Nc4ccc(F)c(Br)c4)cc3n2)cn1`, the GI50 was 1.77 µM and the TGI was 4.85 µM.
`O=C(O)CCCCC(CCSCc1ccccc1)SCc1ccccc1` (configuration not stated): the GI50 was 43.5 µM and the TGI was > 100 µM.

The subject of the next experiment is ACHN renal. Put plainly: DTP human tumour cell line panel, 48 h.
As to `O=C1/C(=C/c2ccc(Br)cc2)C=C(c2ccccc2)N1CCc1ccccc1`, the GI50 is 0.65 µM and the TGI came to 11 µM.
As for `COc1cc2c3c(n(C)c(=O)c2cc1OC)-c1cc2c(cc1/C3=C\CCCN1C(=O)c3ccccc3C1=O)OCO2`, the GI50 is 8.67 µM and the TGI was > 40 µM.
On to `CSc1ccc(C2=NN(C(C)=O)C(c3cc(C)cs3)C2)cc1` (configuration not stated), for which the GI50 was 30.1 µM and the TGI was > 100 µM.
With `CCCCC(=O)OCC1OC(n2cnc3c(=S)nc[nH]c32)C(OC(=O)CCCC)C1OC(=O)CCCC` (configuration not stated), the GI50 was 2.59 µM and the TGI was > 100 µM.
For `O=c1oc2ccc(F)cc2c(=O)n1-c1ccc(F)cc1F`, the GI50 was 2.71 µM and the TGI amounted to 8.63 µM.
With `Cn1cc(-c2cnc3ccc(NC(=O)Nc4ccc(F)c(Br)c4)cc3n2)cn1`, the GI50 is 1.81 µM and the TGI was 4.31 µM.
`O=C(O)CCCCC(CCSCc1ccccc1)SCc1ccccc1` (configuration not stated): the GI50 was 51.1 µM and the TGI is > 100 µM.

The subject of a further experiment is CAKI-1 renal. The experiment is described as follows: DTP human tumour cell line panel, 48 h.
As to `O=C1/C(=C/c2ccc(Br)cc2)C=C(c2ccccc2)N1CCc1ccccc1`, the GI50 was 1.23 µM and the TGI was 7.6 µM.
`COc1cc2c3c(n(C)c(=O)c2cc1OC)-c1cc2c(cc1/C3=C\CCCN1C(=O)c3ccccc3C1=O)OCO2`: the GI50 is 5.44 µM and the TGI is > 40 µM.
Taken in the same sequence, the figures for `CSc1ccc(C2=NN(C(C)=O)C(c3cc(C)cs3)C2)cc1` (configuration not stated) were 28.4 µM and > 100 µM.
For the molecule `CCCCC(=O)OCC1OC(n2cnc3c(=S)nc[nH]c32)C(OC(=O)CCCC)C1OC(=O)CCCC` (configuration not stated), the GI50 was 2.26 µM and the TGI was > 100 µM.
Taken in the same sequence, the figures for `O=c1oc2ccc(F)cc2c(=O)n1-c1ccc(F)cc1F` were 1.98 µM and 6.4 µM.
On to `Cn1cc(-c2cnc3ccc(NC(=O)Nc4ccc(F)c(Br)c4)cc3n2)cn1`, for which the GI50 is 2.05 µM and the TGI was determined as 5.57 µM.
The like results for `O=C(O)CCCCC(CCSCc1ccccc1)SCc1ccccc1` (configuration not stated) were, in that order, > 77.5 µM and > 100 µM.

For another experiment, the system named is HCT-116 colon. The experiment is described as follows: DTP human tumour cell line panel, 48 h.
In the case of `O=C1/C(=C/c2ccc(Br)cc2)C=C(c2ccccc2)N1CCc1ccccc1`, the GI50 is 0.394 µM and the TGI came out at 11.7 µM.
The like results for `COc1cc2c3c(n(C)c(=O)c2cc1OC)-c1cc2c(cc1/C3=C\CCCN1C(=O)c3ccccc3C1=O)OCO2` were, in that order, 26.2 µM and > 40 µM.
Take `CSc1ccc(C2=NN(C(C)=O)C(c3cc(C)cs3)C2)cc1` (configuration not stated): the GI50 is 20.4 µM and the TGI is 66.1 µM.
With `CCCCC(=O)OCC1OC(n2cnc3c(=S)nc[nH]c32)C(OC(=O)CCCC)C1OC(=O)CCCC` (configuration not stated), the GI50 was 2.15 µM and the TGI is > 100 µM.
`O=c1oc2ccc(F)cc2c(=O)n1-c1ccc(F)cc1F`: the GI50 was 2.86 µM and the total growth inhibition concentration (TGI) came out at 9.6 µM.
In the case of `Cn1cc(-c2cnc3ccc(NC(=O)Nc4ccc(F)c(Br)c4)cc3n2)cn1`, the GI50 was 1.87 µM and the TGI was found to be 3.75 µM.
As for `O=C(O)CCCCC(CCSCc1ccccc1)SCc1ccccc1` (configuration not stated), the GI50 was 37.7 µM and the TGI is > 100 µM.

Another experiment concerns LOX IMVI melanoma. Put plainly: DTP human tumour cell line panel, 48 h.
As to `O=C1/C(=C/c2ccc(Br)cc2)C=C(c2ccccc2)N1CCc1ccccc1`, the GI50 was 0.82 µM and the TGI was determined as 10.8 µM.
As to `COc1cc2c3c(n(C)c(=O)c2cc1OC)-c1cc2c(cc1/C3=C\CCCN1C(=O)c3ccccc3C1=O)OCO2`, the GI50 was 20.8 µM and the TGI was > 40 µM.
On to `CSc1ccc(C2=NN(C(C)=O)C(c3cc(C)cs3)C2)cc1` (configuration not stated), for which the GI50 was 24.2 µM and the TGI was > 100 µM.
`CCCCC(=O)OCC1OC(n2cnc3c(=S)nc[nH]c32)C(OC(=O)CCCC)C1OC(=O)CCCC` (configuration not stated): the GI50 is 1.11 µM and the TGI is > 100 µM.
On to `O=c1oc2ccc(F)cc2c(=O)n1-c1ccc(F)cc1F`, for which the GI50 is 3.79 µM and the TGI came out at 22 µM.
Turning to `Cn1cc(-c2cnc3ccc(NC(=O)Nc4ccc(F)c(Br)c4)cc3n2)cn1`, the GI50 was 1.51 µM and the TGI is 2.9 µM.
For the molecule `O=C(O)CCCCC(CCSCc1ccccc1)SCc1ccccc1` (configuration not stated), the GI50 is 48.2 µM and the TGI was > 100 µM.

For another experiment, the system named is OVCAR-8 ovarian. The experiment is described as follows: DTP human tumour cell line panel, 48 h.
As to `O=C1/C(=C/c2ccc(Br)cc2)C=C(c2ccccc2)N1CCc1ccccc1`, the GI50 is 1.04 µM and the TGI came to 10 µM.
Consider `COc1cc2c3c(n(C)c(=O)c2cc1OC)-c1cc2c(cc1/C3=C\CCCN1C(=O)c3ccccc3C1=O)OCO2`, for which the GI50 was 23.8 µM and the TGI was > 40 µM.
Turning to `CSc1ccc(C2=NN(C(C)=O)C(c3cc(C)cs3)C2)cc1` (configuration not stated), the GI50 was 32 µM and the TGI was > 100 µM.
With `CCCCC(=O)OCC1OC(n2cnc3c(=S)nc[nH]c32)C(OC(=O)CCCC)C1OC(=O)CCCC` (configuration not stated), the GI50 was 3.05 µM and the TGI was > 100 µM.
Taken in the same sequence, the figures for `O=c1oc2ccc(F)cc2c(=O)n1-c1ccc(F)cc1F` were 3.39 µM and 91.6 µM.
For `Cn1cc(-c2cnc3ccc(NC(=O)Nc4ccc(F)c(Br)c4)cc3n2)cn1`, the GI50 is 1.83 µM and the TGI turned out to be 4.34 µM.
For the molecule `O=C(O)CCCCC(CCSCc1ccccc1)SCc1ccccc1` (configuration not stated), the GI50 is > 63.6 µM and the TGI was > 100 µM.

For another experiment, the system named is SF-539 CNS. Put plainly: DTP human tumour cell line panel, 48 h.
For the molecule `O=C1/C(=C/c2ccc(Br)cc2)C=C(c2ccccc2)N1CCc1ccccc1`, the GI50 was 1.77 µM and the TGI worked out at 5.57 µM.
As for `COc1cc2c3c(n(C)c(=O)c2cc1OC)-c1cc2c(cc1/C3=C\CCCN1C(=O)c3ccccc3C1=O)OCO2`, the GI50 is 8.99 µM and the TGI is > 40 µM.
Taken in the same sequence, the figures for `CSc1ccc(C2=NN(C(C)=O)C(c3cc(C)cs3)C2)cc1` (configuration not stated) were 39.8 µM and > 100 µM.
Turning to `CCCCC(=O)OCC1OC(n2cnc3c(=S)nc[nH]c32)C(OC(=O)CCCC)C1OC(=O)CCCC` (configuration not stated), the GI50 was 2.07 µM and the TGI is > 62 µM.
Consider `O=c1oc2ccc(F)cc2c(=O)n1-c1ccc(F)cc1F`, for which the GI50 was 3.31 µM and the TGI was 13.8 µM.
Taken in the same sequence, the figures for `Cn1cc(-c2cnc3ccc(NC(=O)Nc4ccc(F)c(Br)c4)cc3n2)cn1` were 1.75 µM and 3.4 µM.
Regarding `O=C(O)CCCCC(CCSCc1ccccc1)SCc1ccccc1` (configuration not stated), the GI50 was 66.5 µM and the TGI was > 100 µM.

Another experiment deals with TK-10 renal. Put plainly: DTP human tumour cell line panel, 48 h.
For the molecule `O=C1/C(=C/c2ccc(Br)cc2)C=C(c2ccccc2)N1CCc1ccccc1`, the GI50 is 1.82 µM and the TGI worked out at 6.06 µM.
On to `COc1cc2c3c(n(C)c(=O)c2cc1OC)-c1cc2c(cc1/C3=C\CCCN1C(=O)c3ccccc3C1=O)OCO2`, for which the GI50 is > 40 µM and the TGI is > 40 µM.
`CSc1ccc(C2=NN(C(C)=O)C(c3cc(C)cs3)C2)cc1` (configuration not stated): the GI50 is 26.9 µM and the TGI was > 100 µM.
As to `CCCCC(=O)OCC1OC(n2cnc3c(=S)nc[nH]c32)C(OC(=O)CCCC)C1OC(=O)CCCC` (configuration not stated), the GI50 is 0.608 µM and the TGI was > 100 µM.
Consider `O=c1oc2ccc(F)cc2c(=O)n1-c1ccc(F)cc1F`, for which the GI50 is 5.07 µM and the TGI is 36.9 µM.
The like results for `Cn1cc(-c2cnc3ccc(NC(=O)Nc4ccc(F)c(Br)c4)cc3n2)cn1` were, in that order, 2.09 µM and 5.5 µM.
The like results for `O=C(O)CCCCC(CCSCc1ccccc1)SCc1ccccc1` (configuration not stated) were, in that order, > 73.4 µM and > 100 µM.

The values are drawn from PubChem BioAssay (NCI).
